Measurements taken from patent publication US11612605B2, “(+)-azasetron for use in the treatment of ear disorders” (SENSORION, priority 2016, dated 2023).
Where two headings read alike, the source gives them in different places.

Assays:
[1] = system: cochlear outer hair cells (OHC); assay: Outer hair cell survival after cisplatin (cochleograms from whole-mount fixed cochleae); type: in vivo, female Wistar rats; details: 14 days of treatment after cisplatin
Description: Two days after baseline audiometry (ABR and DPOAE measurements), oral treatment was initiated in both groups 15 minutes before 8 mg/kg cisplatin infusion during 30 minutes under isoflurane anesthesia. On D14, ABR and DPOAE measurements were performed to evaluate ABR threshold shifts and DPOAE amplitude loss relative to baseline and the temporal bones of each animal were subsequently preserved with PFA fixation for histology (FIG. 5).
To evaluate the effect of (+) azasetron on outer hair cells (OHC) survival after cisplatin administration at an ototoxic dose, cochleograms of surviving OHCs were constructed from whole-mount fixed cochleae.

[2] = system: unilateral vestibular dysfunction induced by intratympanic kainic injection; assay: Kainate model of peripheral excitotoxic vestibular injury: spontaneous nystagmus and roll angle deviation; type: in vivo, female Long-Evans; details: 5.6 mg/kg intraperitoneal daily for 3 days
Description: The capacity of (+)-azasetron besylate to protect against lesions in the peripheral vestibular system was assessed using the kainate model of peripheral excitotoxic injury. Following unilateral, transtympanic injection of the excitotoxic kainic acid leading to the swelling, retraction and uncoupling of synapses between vestibular sensory hair cells and primary afferent neurons, baseline recordings of spontaneous nystagmus (pathological eye movements caused by a deficit of the vestibuloculomotor reflex) and postural deviations are performed before randomization to treatment groups. Recordings were repeated daily for 3 days, then again at D6 and D13 after lesion induction.
Following lesion induction and baseline recordings at t=1h, female Long-Evans were randomized to receive intraperitoneal injections of placebo (n=18) or 5.6 mg/kg (+)-azasetron besylate daily for 3 days (t=1/24/[…]). Recording of spontaneous nystagmus and postural deviations were repeated at 2/4/6/24/25/48/49 hours and D6/D13 after initial lesion induction (FIG. 9).

[3] = Pharmacokinetics study: exposure in inner ear, perilymph and tail plasma after single oral dose; type: in vivo, Wistar rats; details: for AUC: po, 10 mg/kg, 10 mg/kg p.o., per-interval AUC of azasetron free-base
Source text: The 72 male Wistar rats received on 28 Jan. 2016 from Janvier (Janvier, Le Genest-St-Isle) were assigned to the study. They were divided in 3 groups of 24 animals each, one group per test article. Each group was divided in […] subgroups according to the 6-termination time-points.
72 Wistar rats were subjected to oral single dose administration of the test article, racemic azasetron hydrochloride, azasetron hydrochloride (+) or azasetron hydrochloride (−), and sacrificed at different time-points to assess the exposure of the test article in the inner ear, perilymph, and plasma. • Group racemic azasetron: 24 male Wistar, 4 rats per time-point: 10 mg/kg azasetron HCl dissolved in NaCl 0.9%. Administrated as 5 mL/kg p.o.; • Group azasetron (+): 24 male Wistar, 4 rats per time-point: 10 mg/kg (+)-azasetron HCl dissolved in NaCl 0.9%. Administrated as 5 mL/kg p.o.; • Group azasetron (−): 24 male Wistar, 4 rats per time-point: 10 mg/kg (−)-azasetron HCl dissolved in NaCl 0.9%. Administrated as 5 mL/kg p.o.
There were 6 termination time-points for each test article. At time-points 15/30/60/120/240/480 minutes after administration: peripheral plasma from the tail was sampled. The animals were sacrificed by i.v. administration of 0.25 mL/rat of a 160 mg/mL pentobarbital solution. Following sacrifice, the heart blood and both tympanic bullas (left and right) were sampled.
Both tympanic bullas (left and right) were collected, however, only the left one was used for the perilymph and inner ear analysis. The right bulla was stored at −20° C. for future needs when required. For animal IDs 1 and 4, the right bulla was used for the sampling of perilymph and inner ear.
The left bulla was dissected fresh. Briefly, the bulla was opened via the auditory opening to reveal the bone surrounding the cochlea after which the tip of the bone was removed with forceps and a 10 μL pipette tip was inserted to withdraw perilymph.
Upon exposure of the tip of the cochlea, 2 μL of perilymph (fluid) could be recovered from the bulla. The perilymph was brought to 10 μL by the addition of 8 μL water, and then extract via the addition of 30 μL of acetonitrile. After that, the samples were centrifuged and the supernatant was transferred to a glass vial appropriate for the HPLC-MS auto-sampler.
Following recovering of the perilymph, the bones of the inner ear and cochlea components were removed with fine forceps and added to a tared Eppendorf tube. The collection was weighed and brought to 10 mg with the addition of water and placed on ice until extraction. 30 μL of acetonitrile was added and the tubes were incubated in an ultrasound bath, after which they were centrifuged and the supernatant was transferred to a glass vial appropriate for the HPLC-MS auto-sampler. In the process or removing the bones of the inner ear, they were finely distributed in the media and broken by forceps. (Due to the very low volume of the tissue and its fine structure, separate grinding is considered risky vs the potential losses to plastic and media. The materials are very fine in nature and the bone particles are small thus providing only short interfaces to media. The absence of fat and the incubation in solvent is intended to provide sufficient solubility of active ingredient).
The acetonitrile used in the sample preparation for bio-analysis contained the internal standard for the HPLC-MS analysis.
30 μL acetonitrile including the internal standard were added to each 10 μL plasma sample. After adding the acetonitrile, the samples were mixed by vortex and further centrifuged. The supernatant was transferred to a glass vial appropriate for the HPLC-MS auto-sampler.
The LC system comprised an Agilent 1260 liquid chromatography equipped with a binary pump and a column oven, together with a PAL HTS-xt auto-sampler. It is linked to the AB SCIEX TRIPLE QUADTM 4500 (triple-quadrupole) instrument with an ESI interface and a switching valve integrated (Mass spectrometric analysis). […]

## CN1C(=O)COc2c(C(=O)NC3CN4CCC3CC4)cc(Cl)cc21.O=S(=O)(O)c1ccccc1 (single isomer, unassigned; (+)) [(+)-azasetron besylate]
[1]
  conservation of OHCs in the basal turn of the cochlea versus placebo: up to 11 fold
[1]; p<0.001
  number of surviving OHCs versus placebo: significantly higher
[2]; p<0.001
  improvement (reduction) of roll angle deviation (postural head tilt) versus placebo: 30-62%
[2]; p=0.048
  improvement of spontaneous nystagmus versus placebo: 6-48%

## CN1C(=O)COc2c(C(=O)N[C@@H]3CN4CCC3CC4)cc(Cl)cc21 [(−)-azasetron]
[3]; 10 mg/kg p.o. single dose
  Total AUC Inner ear: 27829 nM·min
  Total AUC Perilymph: 11901 nM·min
  Total AUC Tail plasma: 65448 nM·min
[3]; male, Wistar, rat, inner ear, oral, 10 mg/kg p.o. single dose, Time 15 (min), read-out: Average Inner ear concentration (ng azasetron free-base/g tissue)
  concentration at 15 min: 29 ng/g
[3]; male, Wistar, rat, inner ear, oral, 10 mg/kg p.o. single dose, Time 30 (min), read-out: Average Inner ear concentration (ng azasetron free-base/g tissue)
  concentration at 30 min: 27 ng/g
[3]; male, Wistar, rat, inner ear, oral, 10 mg/kg p.o. single dose, Time 60 (min), read-out: Average Inner ear concentration (ng azasetron free-base/g tissue)
  concentration at 60 min: 8 ng/g
[3]; male, Wistar, rat, inner ear, oral, 10 mg/kg p.o. single dose, Time 120 (min), read-out: Average Inner ear concentration (ng azasetron free-base/g tissue)
  concentration at 120 min: 46 ng/g
[3]; male, Wistar, rat, inner ear, oral, 10 mg/kg p.o. single dose, Time 240 (min), read-out: Average Inner ear concentration (ng azasetron free-base/g tissue)
  concentration at 240 min: 21 ng/g
[3]; male, Wistar, rat, inner ear, oral, 10 mg/kg p.o. single dose, Time 480 (min), read-out: Average Inner ear concentration (ng azasetron free-base/g tissue)
  concentration at 480 min: 3 ng/g
[3]; male, Wistar, rat, inner ear, Time 15 (min), read-out: Inner ear AUC (converted)
  AUC: 0.0102 µM·h
[3]; male, Wistar, rat, inner ear, Time 30 (min), read-out: Inner ear AUC (converted)
  AUC: 0.0198 µM·h
[3]; male, Wistar, rat, inner ear, Time 60 (min), read-out: Inner ear AUC (converted)
  AUC: 0.0247 µM·h
[3]; male, Wistar, rat, inner ear, Time 120 (min), read-out: Inner ear AUC (converted)
  AUC: 0.0772 µM·h
[3]; male, Wistar, rat, inner ear, Time 240 (min), read-out: Inner ear AUC (converted)
  AUC: 0.193 µM·h
[3]; male, Wistar, rat, inner ear, Time 480 (min), read-out: Inner ear AUC (converted)
  AUC: 0.139 µM·h
[3]; male, Wistar, rat, perilymph, Time 15 (min), read-out: Perilymph AUC (converted)
  AUC: 0.00507 µM·h
[3]; male, Wistar, rat, perilymph, Time 30 (min), read-out: Perilymph AUC (converted)
  AUC: 0.0102 µM·h
[3]; male, Wistar, rat, perilymph, Time 60 (min), read-out: Perilymph AUC (converted)
  AUC: 0.015 µM·h
[3]; male, Wistar, rat, perilymph, Time 120 (min), read-out: Perilymph AUC (converted)
  AUC: 0.0363 µM·h
[3]; male, Wistar, rat, perilymph, Time 240 (min), read-out: Perilymph AUC (converted)
  AUC: 0.0747 µM·h
[3]; male, Wistar, rat, perilymph, Time 480 (min), read-out: Perilymph AUC (converted)
  AUC: 0.0571 µM·h
[3]; male, Wistar, rat, tail plasma, Time 15 (min), read-out: Tail plasma AUC (converted)
  AUC: 0.0203 µM·h
[3]; male, Wistar, rat, tail plasma, Time 30 (min), read-out: Tail plasma AUC (converted)
  AUC: 0.034 µM·h
[3]; male, Wistar, rat, tail plasma, Time 60 (min), read-out: Tail plasma AUC (converted)
  AUC: 0.0515 µM·h
[3]; male, Wistar, rat, tail plasma, Time 120 (min), read-out: Tail plasma AUC (converted)
  AUC: 0.17 µM·h
[3]; male, Wistar, rat, tail plasma, Time 240 (min), read-out: Tail plasma AUC (converted)
  AUC: 0.416 µM·h
[3]; male, Wistar, rat, tail plasma, Time 480 (min), read-out: Tail plasma AUC (converted)
  AUC: 0.4 µM·h
